Assay results: ChEMBL document CHEMBL1155033, “Catalytic analysis of the validamycin glycosyltransferase (ValG) and enzymatic production of 4''-epi-validamycin A” (J Nat Prod, 2008)
Active and inactive are the calls of the source. No cut-off for these calls is given here.

Tested on: Rhizoctonia solani
Assay: Growth inhibition of Rhizoctonia solani assessed as inhibition of fungal mycelia expansion at 1 mg after 2 days by agar plug assay
Type: functional, organism-based

OCC1=C[C@@H](N[C@H]2C[C@H](CO)[C@@H](O[C@H]3O[C@@H](CO)[C@H](O)[C@@H](O)[C@@H]3O)[C@H](O)[C@H]2O)[C@H](O)[C@@H](O)[C@@H]1O
Activity: Active
